SMILES strings stand for the structures. Residues, ends and D or L forms follow the SMILES beside them. *: point of attachment. X1 = O=C1CCC(N2C(=O)c3cccc(*)c3C2=O)C(=O)N1; PEG4 = NCCOCCOCCOCCOCCC(=O)O

This is an account of results in US20250049930A1, “PROTAC MOLECULES TARGETING FOXP3 AND USES THEREOF” (CEDARS-SINAI MEDICAL CENTER, priority 2022, published 2025).

The target in experiment [1] is T1, FoxP3 (Mus musculus, UniProt Q99JB6).
T1 construct: from tissue; host or cells: peripheral blood and spleen of mice
T1 sequence (Q99JB6 1-429): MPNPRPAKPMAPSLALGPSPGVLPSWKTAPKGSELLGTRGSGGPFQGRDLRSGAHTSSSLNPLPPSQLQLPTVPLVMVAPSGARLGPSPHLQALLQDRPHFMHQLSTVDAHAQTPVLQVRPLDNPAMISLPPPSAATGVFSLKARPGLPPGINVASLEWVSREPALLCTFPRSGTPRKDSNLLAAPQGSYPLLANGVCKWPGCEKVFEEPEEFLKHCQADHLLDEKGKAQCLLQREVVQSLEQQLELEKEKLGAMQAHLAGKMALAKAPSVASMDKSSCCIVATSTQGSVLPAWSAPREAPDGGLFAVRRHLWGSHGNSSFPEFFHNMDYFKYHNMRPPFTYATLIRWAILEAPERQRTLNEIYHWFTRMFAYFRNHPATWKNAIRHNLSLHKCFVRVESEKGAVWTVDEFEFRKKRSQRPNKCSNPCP
The experiment is described as follows: FoxP3 in CD4+ cells of mouse splenocytes treated in vitro, flow cytometry. It is filed as cell-based. The protocol:
FIGS. 2A-2E depict that a proteolysis-targeting chimera (PROTAC) targeting FoxP3 (PF) degraded FoxP3 in vitro and in vivo. P-FoxP3 forms a ternary complex with cereblon and FoxP3. Surface plasmon resonance (SPR) assay was used to measure the equilibrium dissociation constant (KD) for the ternary complex consisting of cereblon, P-FoxP3 and FoxP3 (FIG. 2A). SPR assay was used to measure the KD for the binary complex consisting of cereblon and P-FoxP3 (FIG. 2B). Mouse splenocytes were treated in vitro with varying PF concentrations and percent of CD4+ cells staining for intracellular FoxP3 was assessed by flow cytometry. (FIG. 2C). […] 72 hours later, FoxP3 positive CD4+ cells in peripheral blood and spleen were assessed by flow cytometry (FIG. 2D). FoxP3 positive CD4+ cells in peripheral blood were assessed by flow cytometry at various timepoints following PF administration (FIG. 2E). […]
To determine if PF results in the degradation of FoxP3, mouse splenocytes were treated in vitro with varying concentrations of PF and percent of CD4+ cells staining for intracellular FoxP3 was assessed by flow cytometry. […] 72 hours later, FoxP3 positive CD4+ cells in peripheral blood and spleen were assessed by flow cytometry. […] To understand the time course of FoxP3 decrease, serial blood draws were assessed after a single injection of PF (FIG. 2E). […]
A general note: In flow cytometry, cells or beads pass a laser one at a time.

The target of experiment [2] is T1, FoxP3. The experiment is described as follows: FoxP3 positive CD4+ cells in peripheral blood and spleen of mice after PF administration. The format is in vivo. As to the method:
FIGS. 2A-2E depict that a proteolysis-targeting chimera (PROTAC) targeting FoxP3 (PF) degraded FoxP3 in vitro and in vivo. P-FoxP3 forms a ternary complex with cereblon and FoxP3. Surface plasmon resonance (SPR) assay was used to measure the equilibrium dissociation constant (KD) for the ternary complex consisting of cereblon, P-FoxP3 and FoxP3 (FIG. 2A). SPR assay was used to measure the KD for the binary complex consisting of cereblon and P-FoxP3 (FIG. 2B). Mouse splenocytes were treated in vitro with varying PF concentrations and percent of CD4+ cells staining for intracellular FoxP3 was assessed by flow cytometry. (FIG. 2C). Mice received 0.1 mmole of PF intraperitoneally (i.p.) (FIGS. 2D and 2E). 72 hours later, FoxP3 positive CD4+ cells in peripheral blood and spleen were assessed by flow cytometry (FIG. 2D). FoxP3 positive CD4+ cells in peripheral blood were assessed by flow cytometry at various timepoints following PF administration (FIG. 2E). Representative results from duplicate experiments are shown.
To assess T cells in mice, CD4+ FoxP3+ cells from serial peripheral blood draws were assessed by flow cytometry. To assess lymphocytes in mice treated with various therapies, lymph nodes and spleens were harvested to make single-cell suspensions that were activated by a CA9 peptide (AYEQLLSHL) for 4 days, and then flow cytometry was used to assess CD4, CD8, IFNγ, TNFα, CD62L CD44, and Eomes.
To determine if PF results in the degradation of FoxP3, mouse splenocytes were treated in vitro with varying concentrations of PF and percent of CD4+ cells staining for intracellular FoxP3 was assessed by flow cytometry. […] The next step was to determine if PF can decrease FoxP3 in vivo. […] 72 hours later, FoxP3 positive CD4+ cells in peripheral blood and spleen were assessed by flow cytometry. […] To understand the time course of FoxP3 decrease, serial blood draws were assessed after a single injection of PF (FIG. 2E). FoxP3 positive CD4+ cells in peripheral blood were assessed by flow cytometry at various timepoints following the PF administration. […]

With `CSCC[C@H](NC(=O)[C@H](C)NC(=O)[C@H](Cc1ccccc1)NC(=O)[C@H](Cc1ccccc1)NC(=O)[C@@H]1CCCN1C(=O)[C@H](Cc1c[nH]c2ccccc12)NC(=O)[C@H](CCSC)NC(=O)[C@H](CCCCN)NC(=O)[C@H](CCCNC(=N)N)NC(=O)[C@H](Cc1ccccc1)NC(=O)[C@H](CO)NC(=O)[C@H](CCC(N)=O)NC(=O)[C@H](Cc1ccccc1)NC(=O)[C@H](CC(=O)O)NC(=O)[C@H](CCCNC(=N)N)NC(=O)CCOCCOCCOCCOCCNc1cccc2c1C(=O)N(C1CCC(=O)NC1=O)C2=O)C(=O)O` (some centres unmarked) [PF, Pomalidomide-PEG4-RDFQSFRKMWPFFAM] ({X1-PEG4}-RDFQSFRKMWPFFAM-OH), the “FoxP3 in CD4+ cells” value in experiment [1] (fresh mouse splenocytes cultured with IL-2, 1 μm P-FoxP3, 7 days, vs without P-FoxP3) is listed as “degraded FoxP3 in CD4+ cells”. In experiment [1] (mouse splenocytes treated in vitro with varying PF concentrations), the “percent of CD4+ cells staining for intracellular FoxP3” value is recorded as “decreased in a dose-dependent manner”. Moreover, the “FoxP3 positive CD4+ cells in peripheral blood, time course” value in experiment [2] (serial blood draws after a single injection of PF) is “immediately dropped as measured on day 2, and slightly came up on day 8”. Also, in experiment [2] (single dose 0.1 mmole i.p., 72 hours later, peripheral decrease p<0.0008), the “FoxP3 positive CD4+ cells in peripheral blood and spleen” value was “decreased 3 days later in both spleen and peripheral blood”. The “duration of FoxP3 decrease after a single PF dose” value in experiment [2] (spleen and peripheral lymphocytes) is “at least 8 days”.
